Source: PubChem BioAssay (NCI)
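Dose response: 5 concentrations. Exposure: 48 h. Format: 96-well plates. Endpoint: linear interpolation; highest concentration if not reached. Definition used: TGI = concentration required for complete inhibition of growth.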

Assays:
Assay in all cases: inhibition of tumour cell growth, NCI panel, 48 h
KM12 colon = tested on: KM12 colon
SW-620 colon = tested on: SW-620 colon
NCI-H226 lung = tested on: NCI-H226 lung
OVCAR-5 ovarian = tested on: OVCAR-5 ovarian
PC-3 prostate = tested on: PC-3 prostate
HOP-92 NSCLC = tested on: HOP-92 NSCLC
MDA-MB-435 = tested on: MDA-MB-435
UO-31 renal = tested on: UO-31 renal
RPMI-8226 leukemia = tested on: RPMI-8226 leukemia
SR leukemia = tested on: SR leukemia
UACC-62 melanoma = tested on: UACC-62 melanoma
OVCAR-4 ovarian = tested on: OVCAR-4 ovarian
SNB-75 CNS = tested on: SNB-75 CNS
HCC-2998 colon = tested on: HCC-2998 colon
SF-295 CNS = tested on: SF-295 CNS
HCT-116 colon = tested on: HCT-116 colon
SK-MEL-28 melanoma = tested on: SK-MEL-28 melanoma
COLO 205 colon = tested on: COLO 205 colon
M14 melanoma = tested on: M14 melanoma
HCT-15 colon = tested on: HCT-15 colon
NCI-H522 lung = tested on: NCI-H522 lung
BT-549 breast = tested on: BT-549 breast
TK-10 renal = tested on: TK-10 renal
DU-145 prostate = tested on: DU-145 prostate
MCF7 breast = tested on: MCF7 breast
RXF 393 renal = tested on: RXF 393 renal
SK-MEL-2 melanoma = tested on: SK-MEL-2 melanoma
MDA-MB-231 breast = tested on: MDA-MB-231 breast
MOLT-4 leukemia = tested on: MOLT-4 leukemia
SNB-19 CNS = tested on: SNB-19 CNS
SN12C renal = tested on: SN12C renal
SF-539 CNS = tested on: SF-539 CNS
K-562 leukemia = tested on: K-562 leukemia
SK-MEL-5 melanoma = tested on: SK-MEL-5 melanoma
IGROV1 ovarian = tested on: IGROV1 ovarian
786-0 renal = tested on: 786-0 renal
A549 NSCLC = tested on: A549 NSCLC
EKVX NSCLC = tested on: EKVX NSCLC
U251 CNS = tested on: U251 CNS
HS 578T breast = tested on: HS 578T breast
MALME-3M melanoma = tested on: MALME-3M melanoma
OVCAR-8 ovarian = tested on: OVCAR-8 ovarian
NCI/ADR-RES ovarian = tested on: NCI/ADR-RES ovarian
MDA-N = tested on: MDA-N
T-47D breast = tested on: T-47D breast
CAKI-1 renal = tested on: CAKI-1 renal
OVCAR-3 ovarian = tested on: OVCAR-3 ovarian
CCRF-CEM leukemia = tested on: CCRF-CEM leukemia
UACC-257 melanoma = tested on: UACC-257 melanoma
LOX IMVI melanoma = tested on: LOX IMVI melanoma
SF-268 CNS = tested on: SF-268 CNS
NCI-H460 lung = tested on: NCI-H460 lung
HL-60(TB) leukemia = tested on: HL-60(TB) leukemia
ACHN renal = tested on: ACHN renal
HOP-62 NSCLC = tested on: HOP-62 NSCLC
SK-OV-3 ovarian = tested on: SK-OV-3 ovarian
HT29 colon = tested on: HT29 colon
NCI-H23 lung = tested on: NCI-H23 lung
A498 renal = tested on: A498 renal

Question: How did the TGI (KM12 colon) turn out when `CNN1C(=O)c2c(C)c(C)c(C#N)c(N)c2C1=O` was run?
Answer: > 100 µM

Question: And the TGI (SW-620 colon)?
Answer: > 100 µM

Question: And the TGI (NCI-H226 lung)?
Answer: > 100 µM

Question: What about the TGI (OVCAR-5 ovarian) of the same compound?
Answer: > 100 µM

Question: And the TGI (PC-3 prostate)?
Answer: > 100 µM

Question: What about the TGI (HOP-92 NSCLC) of the same compound?
Answer: > 100 µM

Question: And the TGI (MDA-MB-435)?
Answer: > 100 µM

Question: What about the TGI (UO-31 renal) of the same compound?
Answer: > 100 µM

Question: What about the TGI (RPMI-8226 leukemia) of the same compound?
Answer: > 100 µM

Question: What about the TGI (SR leukemia) of the same compound?
Answer: > 100 µM

Question: What about the TGI (UACC-62 melanoma) of the same compound?
Answer: > 100 µM

Question: And the TGI (OVCAR-4 ovarian)?
Answer: > 100 µM

Question: And the TGI (SNB-75 CNS)?
Answer: > 100 µM

Question: What about the TGI (HCC-2998 colon) of the same compound?
Answer: > 100 µM

Question: What about the TGI (SF-295 CNS) of the same compound?
Answer: > 100 µM

Question: And the TGI (HCT-116 colon)?
Answer: > 100 µM

Question: What about the TGI (SK-MEL-28 melanoma) of the same compound?
Answer: > 100 µM

Question: What about the TGI (COLO 205 colon) of the same compound?
Answer: > 100 µM

Question: What about the TGI (M14 melanoma) of the same compound?
Answer: > 100 µM

Question: What about the TGI (HCT-15 colon) of the same compound?
Answer: > 100 µM

Question: What about the TGI (NCI-H522 lung) of the same compound?
Answer: > 100 µM

Question: What about the TGI (BT-549 breast) of the same compound?
Answer: > 100 µM

Question: And the TGI (TK-10 renal)?
Answer: > 100 µM

Question: And the TGI (DU-145 prostate)?
Answer: > 100 µM

Question: What about the TGI (MCF7 breast) of the same compound?
Answer: > 100 µM

Question: And the TGI (RXF 393 renal)?
Answer: > 100 µM

Question: What about the TGI (SK-MEL-2 melanoma) of the same compound?
Answer: > 100 µM

Question: And the TGI (MDA-MB-231 breast)?
Answer: > 100 µM

Question: And the TGI (MOLT-4 leukemia)?
Answer: > 100 µM

Question: And the TGI (SNB-19 CNS)?
Answer: > 100 µM

Question: And the TGI (SN12C renal)?
Answer: > 100 µM

Question: What about the TGI (SF-539 CNS) of the same compound?
Answer: > 100 µM

Question: What about the TGI (K-562 leukemia) of the same compound?
Answer: > 100 µM

Question: And the TGI (SK-MEL-5 melanoma)?
Answer: > 100 µM

Question: What about the TGI (IGROV1 ovarian) of the same compound?
Answer: > 100 µM

Question: And the TGI (786-0 renal)?
Answer: > 100 µM

Question: What about the TGI (A549 NSCLC) of the same compound?
Answer: > 100 µM

Question: And the TGI (EKVX NSCLC)?
Answer: > 100 µM

Question: What about the TGI (U251 CNS) of the same compound?
Answer: > 100 µM

Question: And the TGI (HS 578T breast)?
Answer: > 100 µM

Question: And the TGI (MALME-3M melanoma)?
Answer: > 100 µM

Question: And the TGI (OVCAR-8 ovarian)?
Answer: > 100 µM

Question: What about the TGI (NCI/ADR-RES ovarian) of the same compound?
Answer: > 100 µM

Question: What about the TGI (MDA-N) of the same compound?
Answer: > 100 µM

Question: And the TGI (T-47D breast)?
Answer: > 100 µM

Question: And the TGI (CAKI-1 renal)?
Answer: > 100 µM

Question: And the TGI (OVCAR-3 ovarian)?
Answer: > 100 µM

Question: And the TGI (CCRF-CEM leukemia)?
Answer: > 100 µM

Question: What about the TGI (UACC-257 melanoma) of the same compound?
Answer: > 100 µM

Question: What about the TGI (LOX IMVI melanoma) of the same compound?
Answer: > 100 µM

Question: And the TGI (SF-268 CNS)?
Answer: > 100 µM

Question: And the TGI (NCI-H460 lung)?
Answer: > 100 µM

Question: What about the TGI (HL-60(TB) leukemia) of the same compound?
Answer: > 100 µM

Question: And the TGI (ACHN renal)?
Answer: > 100 µM

Question: Which results are given for `Cn1ccoc1=Nc1ccc(Cl)c(Cl)c1`?
Answer: TGI (KM12 colon): > 10 µM; TGI (SW-620 colon): > 10 µM; TGI (NCI-H226 lung): > 10 µM; TGI (OVCAR-5 ovarian): > 10 µM; TGI (PC-3 prostate): > 10 µM; TGI (HOP-92 NSCLC): > 10 µM; TGI (MDA-MB-435): > 10 µM; TGI (UO-31 renal): > 10 µM; TGI (RPMI-8226 leukemia): > 10 µM; TGI (SR leukemia): > 10 µM; TGI (UACC-62 melanoma): > 10 µM; TGI (OVCAR-4 ovarian): > 10 µM; TGI (SNB-75 CNS): > 10 µM; TGI (HCC-2998 colon): > 10 µM; TGI (HOP-62 NSCLC): > 10 µM; TGI (SF-295 CNS): > 10 µM; TGI (HCT-116 colon): > 10 µM; TGI (SK-MEL-28 melanoma): > 10 µM; TGI (COLO 205 colon): > 10 µM; TGI (M14 melanoma): > 10 µM; TGI (HCT-15 colon): > 10 µM; TGI (NCI-H522 lung): > 10 µM; TGI (BT-549 breast): > 10 µM; TGI (TK-10 renal): > 10 µM; TGI (DU-145 prostate): > 10 µM; TGI (MCF7 breast): > 10 µM; TGI (MDA-MB-231 breast): > 10 µM; TGI (MOLT-4 leukemia): > 10 µM; TGI (SK-OV-3 ovarian): > 10 µM; TGI (SNB-19 CNS): > 10 µM; TGI (SN12C renal): > 10 µM; TGI (SF-539 CNS): > 10 µM; TGI (K-562 leukemia): > 10 µM; TGI (SK-MEL-5 melanoma): > 10 µM; TGI (IGROV1 ovarian): > 10 µM; TGI (786-0 renal): > 10 µM; TGI (A549 NSCLC): > 10 µM; TGI (EKVX NSCLC): > 10 µM; TGI (U251 CNS): > 10 µM; TGI (HS 578T breast): > 10 µM; TGI (MALME-3M melanoma): > 10 µM; TGI (OVCAR-8 ovarian): > 10 µM; TGI (NCI/ADR-RES ovarian): > 10 µM; TGI (MDA-N): > 10 µM; TGI (HT29 colon): > 10 µM; TGI (T-47D breast): > 10 µM; TGI (CAKI-1 renal): > 10 µM; TGI (OVCAR-3 ovarian): > 10 µM; TGI (CCRF-CEM leukemia): > 10 µM; TGI (NCI-H23 lung): > 10 µM; TGI (A498 renal): > 10 µM; TGI (UACC-257 melanoma): > 10 µM; TGI (LOX IMVI melanoma): > 10 µM; TGI (SF-268 CNS): > 10 µM; TGI (NCI-H460 lung): > 10 µM; TGI (ACHN renal): > 10 µM
